Reference: US20220143183A1, “PHOTOSWITCHABLE PROTACS AND SYNTHESIS AND USES THEREOF” (New York University, priority 2019, published 2022)

Columns and labels:
BRD4 [1] = target: T1, BRD4 (Homo sapiens, UniProt O60885); assay: Western blot of BRD4 levels in RS4;11 cells; type: cell-based; design: endogenous in cells; host or cells: RS4;11 (ATCC CRL-1873)
Procedure: Next, the light dependence of targeted protein degradation was analyzed in RS4;11 cells by western blot analysis of the BET proteins BRD2-4 (FIG. 5). To this end, cells were treated with increasing concentrations of our lead compound, PHOTAC-I-3, for 4 h and pulse-irradiated with 390 nm light (100 ms every 10 s). […] The cereblon-dependent degradation was confirmed by a competition experiment (FIG. 5E), and further validated by siRNA knockdown of cereblon (FIG. 13).
Western Immunoblot Analysis. Rabbit monoclonal Antibodies for BRD4 (#13440), β-Actin (#4970) c-Myc (#5605) and Anti-rabbit IgG, HRP-linked Antibody (#7074) were purchased from Cell Signalling Technologies.
Cells were incubated with different concentrations of selected compounds. They were placed in a light-proof box and preirradiated for 1 min at 390 nm followed by 100 ms pulses every 10 s or were kept in the dark for 4 h.
Cultured cells were collected by centrifugation and washed twice with cold PBS. The supernatant was removed and each cell pellet was lysed in 100 μL NP40-Cell-Lysis Buffer+0.1% SDS+1 mM PMSF+ protease inhibitor cocktail (Sigma Aldrich) for 30 min on ice, with vortexing at 10-minute intervals. Afterwards, cells were centrifuged at 13.000 rpm for 10 min at 4° C. Samples were stored on ice and the supernatant was collected for protein concentration determination using a Thermofisher Scientific Pierce™ Coomassie Plus (Bradford) Assay Kit.
The samples were diluted each with 5 μL Laemmli sample buffer Invitrogen (NuPAGE LDS Sample Buffer 4×) and 1 μL DTT, heated at 95° C. for 5 min. Respectively 20 μL of each sample was loaded in a lane of a Bio-Rad Mini-PROTEAN TGX precast Gel, 4-20%, used with tris-glycine SDS Running buffer. The gel ran 5 min at 50 V, then 35 min at 140 V. Next step was the electrotransfer to a polyvinylidene difluoride (PVDF) membrane which was carried out using an iBlot™ 2 Dry Blotting System set to the standard program. After the transfer, the membrane was washed with 25 mL TB ST for 5 min and subsequent incubated in 25 mL of blocking buffer (1×TBST+5% nonfat dry milk, Blotto, Santa Cruz Biotechnology) for 1 h at room temperature. The membrane was washed three times for 5 min each with 15 mL of TBST and incubated in a 10 mL antibody dilution buffer with gentle agitation at 4° C. overnight (Actin: 1:1000; c-MYC: 1:1000; BRD4: 1:1000). The next day, the membrane was washed again three times for 5 min each with 15 mL TBST, followed by incubation with anti-rabbit, HRP-linked antibody (1:2000) in 10 mL blocking buffer with gentle agitation for 1 h at room temperature. Afterwards, the membrane was washed three times for 5 min each with 15 mL TBST and then incubated in 10 mL of Clarity Max Western ECL Substrate solution for 5 min. Chemoluminescence imaging was performed on a Bio-Rad ChemiDoc™ Imaging System.
LED illumination. For illumination of the cells we used the cell disco system as previously described in the literature^[25]. 390 nm 5 mm LEDs were purchased from Roithner Lasertechnik. Cells were preirradiated for 1 min at 390 nm, followed by 100 ms pulses every 10 s in 96- or 6-well plates.

BRD4 [2] = target: T1, BRD4; assay: Immunoblot of BRD4 degradation in MB-MDA-231 cells; type: cell-based; design: Immunoblot analysis after treatment of MB-MDA-231 cells with PHOTAC-I-3 for 18 h at different concentrations; endogenous in cells; host or cells: MB-MDA-231 (A10) and MB-MDA-468 (A11) (so in the source); conditions: 18 h, 390 nm pulses vs dark
Procedure: FIG. 10 depicts an immunoblot analysis of PHOTAC-I-3 A) Immunoblot analysis after treatment of MB-MDA-231 cells with PHOTAC-I-3 for 18 h at different concentrations. Cells were either irradiated with 100 ms pulses of 390 nm light every 10 s (left) or kept the dark (right). B) Immunoblot analysis after treatment of MB-MDA-468 cells with PHOTAC-I-3 for 18 h at different concentrations. Cells were either irradiated with 100 ms pulses of 390 nm light every 10 s (left) or kept the dark (right). (MWM, molecular weight marker). C) Immunoblot of BRD4 degradation in RS4;11 cells, promoted by PHOTAC-I-3 (300 nM) after 1 minute of irradiation (100 ms every 10 s), highlighting sustained degradation at the applied dosage.
Photoactivatable degraders and inhibitors of BRD4, c-MYC levels were also affected.

In the case of `COc1cc(/N=N/c2cccc3c2CN(C2CCC(=O)NC2=O)C3=O)cc(OC)c1OCC(=O)NCCCCNC(=O)C[C@@H]1N=C(c2ccc(Cl)cc2)c2c(sc(C)c2C)-n2c(C)nnc21` (stereo partly drawn) [PHOTAC-I-3, 2-((S)-4-(4-chlorophenyl)-2,3,9-trimethyl-6H-thieno[3,2-f][1,2,4]triazolo[4,3-a][1,4]diazepin-6-yl)-N-(4-(2-(4-((E)-(2-(2,6-dioxopiperidin-3-yl)-1-oxoisoindolin-4-yl)diazenyl)-2,6-dimethoxyphenoxy)acetamido)butyl)acetamide], the “time dependence of BRD4 degradation” value (BRD4 [1]; 1 μM, 390 nm pulse irradiation, compared with BRD2 and BRD3) is reported as “degraded more slowly”, the “BRD4 degradation at high concentration (hook effect)” value (BRD4 [1]; 10 μM, 4 h, 390 nm) is reported as “less degradation” and the BRD4 levels (BRD4 [1]; 4 h, 390 nm pulses (100 ms every 10 s)) is reported as “pronounced decrease of BRD4 levels”. The “BRD4 degradation in the dark after brief activation” value (BRD4 [1]; activation for 1 min, 300 nM) was “Persistent degradation of BRD4” and the BRD4 degradation (BRD4 [2]) was “light-dependent degradation of BRD4”.
